From ChEMBL document CHEMBL4673299, “A new sesquineolignan and four new neolignans isolated from the leaves of Piper betle, a traditional medicinal plant in Myanmar” (Bioorg Med Chem Lett, 2021)

Test system: RAW264.7
Test: Anti-inflammatory activity in murine RAW264.7 cells assessed as inhibition of LPS-induced NO production at 50 uM relative to control
Type: functional
Conditions: Mus musculus

SMILES	inhibition at 50 µM [%]
C=CCc1cc(O)c2c(c1)-c1cc(O)c(O)cc1C(C=C)O2 (centres undefined)	< 50
C=CCc1cc(O)c(O)cc1-c1cc(OC)c(O)cc1CC=C	< 50
C=CCc1cc(O)c2oc3cc(O)c(O)c(CC=C)c3c2c1	< 50
COc1cc(/C=C/CO)ccc1O [CONIFERYL ALCOHOL]	< 50
COc1cc(/C=C/C=O)ccc1O [CONIFERYL ALDEHYDE]	< 50
C=CCc1ccc(O)c(OC)c1 [EUGENOL]	< 50
COC(=O)/C=C/c1ccc(O)cc1 [METHYL P-HYDROXYCINNAMATE]	< 50
COc1cc(C=O)ccc1O [VANILLIN]	< 50

Test system: RAW264.7
Test: Anti-inflammatory activity in murine RAW264.7 cells assessed as inhibition of LPS-induced NO production
Type: functional, cell-based
Conditions: Mus musculus

IC50 [µM]	SMILES
45.9	C=CCc1cc(O)c(OC)cc1C/C=C/c1ccc(OC)c(O)c1
9.87	C=CCc1ccc2c(c1)O[C@@H](c1ccc(O)c(O)c1)[C@H](Cc1cc(O)c(O)cc1CC=C)O2
40.5	C=CCc1cc(O)c(O)cc1-c1cc(O)c(O)cc1CC=C
4.8	C=CCc1ccc(O)c(O)c1 [HYDROXYCHAVICOL]
33.8	CNC(=N)NCCC[C@H](N)C(=O)O [TILARGININE]
26.4	O=C/C=C/c1ccc(O)cc1 [p-HYDROXYCINNAMALDEHYDE]
